The NIST ThermoML archive (doi:10.1016/j.fluid.2018.05.028)

Legend:
[1] = 101 kPa, Liquid; for viscosity: Concentric cylinders viscometry; for speed of sound: Single path-length method; for mass density: Vibrating tube method
[2] = refractive index (Na D-line) (dimensionless); conditions: 101 kPa, Liquid, Standard Abbe refractometry
[3] = refractive index (Na D-line) (dimensionless); xn = mol fraction of the nth substance listed; conditions: 101 kPa, Liquid, Standard Abbe refractometry, x1 = 1
[4] = xn = mol fraction of the nth substance listed; conditions: 101 kPa, Liquid, x1 = 1; for viscosity: Concentric cylinders viscometry; for speed of sound: Single path-length method; for mass density: Vibrating tube method

CCCCCCCCCCCCCCCC [hexadecane]
Conditions | mass density, [1] [kg/m3] | refractive index, [2] | speed of sound, [1] [m/s] | viscosity, [1] [mPa·s]
298.15 K | 769.87 | 1.4318 | 1338.5 | 3.035
303.15 K | 766.4 | 1.4296 | 1319.8 | 2.708
308.15 K | 762.95 | 1.4275 | 1301.3 | 2.432

CCCCO [butan-1-ol]
Conditions | mass density, [1] [kg/m3] | refractive index, [2] | speed of sound, [1] [m/s] | viscosity, [1] [mPa·s]
298.15 K | 805.98 | 1.3979 | 1239.6 | 2.531
303.15 K | 802.13 | 1.3959 | 1222.8 | 2.232
308.15 K | 798.25 | 1.3938 | 1206 | 1.975

CCCO [propan-1-ol] + CCCCCCCCCCCCCCCC
Conditions | mass density, [4] [kg/m3] | refractive index, [3] | speed of sound, [4] [m/s] | viscosity, [4] [mPa·s]
293.15 K | 803.95 | 1.3852 | 1223 | 2.147
298.15 K | 799.93 | 1.3831 | 1205.7 | 1.926
303.15 K | 795.89 | 1.381 | 1188.6 | 1.716
308.15 K | 791.82 | 1.3789 | 1171.6 | 1.532
313.15 K | 787.71 | 1.3768 | 1154.7 | 1.379
318.15 K | 783.56 | 1.3747 | 1137.9 | 1.234
323.15 K | 779.36 | 1.3726 | 1121.1 | 1.112
328.15 K | 775.1 | 1.3704 | 1104.3 | 1.004
333.15 K | 770.78 | 1.3682 | 1087.5 | 0.9109
338.15 K | 766.4 | 1.366 | 1070.6 | 0.8241
343.15 K | 761.93 | 1.3635 | 1053.8 | 0.7468

CCCO [propan-1-ol]
Conditions | mass density, [1] [kg/m3] | refractive index, [2] | speed of sound, [1] [m/s] | viscosity, [1] [mPa·s]
298.15 K | 799.93 | 1.3831 | 1205.7 | 1.926
303.15 K | 795.89 | 1.381 | 1188.6 | 1.716
308.15 K | 791.82 | 1.3789 | 1171.6 | 1.532

CCCCCCCC/C=C\CCCCCCCC(=O)OCC [ethyl (Z)-9-octadeceneoate]
Conditions | mass density, [1] [kg/m3] | refractive index, [2] | speed of sound, [1] [m/s] | viscosity, [1] [mPa·s]
298.15 K | 865.23 | 1.4481 | 1376.2 | 5.674
303.15 K | 861.6 | 1.4461 | 1358.4 | 4.999
308.15 K | 857.97 | 1.4441 | 1340.8 | 4.435

CCCCO [butan-1-ol] + CCCCCCCCCCCCCCCC
Conditions | mass density, [4] [kg/m3] | refractive index, [3] | speed of sound, [4] [m/s] | viscosity, [4] [mPa·s]
293.15 K | 809.8 | 1.3999 | 1256.6 | 2.868
298.15 K | 805.98 | 1.3979 | 1239.6 | 2.531
303.15 K | 802.13 | 1.3959 | 1222.8 | 2.232
308.15 K | 798.25 | 1.3938 | 1206 | 1.975
313.15 K | 794.35 | 1.3918 | 1189.4 | 1.758
318.15 K | 790.41 | 1.3897 | 1172.8 | 1.563
323.15 K | 786.42 | 1.3876 | 1156.2 | 1.399
328.15 K | 782.39 | 1.3855 | 1139.7 | 1.256
333.15 K | 778.3 | 1.3833 | 1123.2 | 1.131
338.15 K | 774.15 | 1.381 | 1106.6 | 1.021
343.15 K | 769.94 | 1.3788 | 1090.1 | 0.925

CCCO [propan-1-ol] + CCCCCCCC/C=C\CCCCCCCC(=O)OCC
Conditions | mass density, [4] [kg/m3] | refractive index, [3] | speed of sound, [4] [m/s] | viscosity, [4] [mPa·s]
293.15 K | 803.95 | 1.3852 | 1223 | 2.147
298.15 K | 799.93 | 1.3831 | 1205.7 | 1.926
303.15 K | 795.89 | 1.381 | 1188.6 | 1.716
308.15 K | 791.82 | 1.3789 | 1171.6 | 1.532
313.15 K | 787.71 | 1.3768 | 1154.7 | 1.379
318.15 K | 783.56 | 1.3747 | 1137.9 | 1.234
323.15 K | 779.36 | 1.3726 | 1121.1 | 1.112
328.15 K | 775.1 | 1.3704 | 1104.3 | 1.004
333.15 K | 770.78 | 1.3682 | 1087.5 | 0.9109
338.15 K | 766.4 | 1.366 | 1070.6 | 0.8241
343.15 K | 761.93 | 1.3635 | 1053.8 | 0.7468
